Laboratory results as given in paper PMC7822874, “Chemoprotective antimalarials identified through quantitative high-throughput screening of Plasmodium blood and liver stage parasites” (Scientific Reports, 2021).
Where two headings read alike, the source gives them in different places.

Tests used:
Type in all cases: cell-based, Plasmodium falciparum
Settings in all cases: Plasmodium falciparum
[1] = system: P. falciparum Dd2 Cytb V259L; test: SYBR Green ABS proliferation assay, NCGC00473217 selected clone F06
Protocol: (§1) As resistance selection studies implicated the parasite cytochrome bc1 complex in mediating reduced parasite susceptibility to both NCGC00473217 and NCGC00374598, we leveraged these drug-selected parasites to test for altered drug response to a panel of antimalarial compounds.
(§2) The P. falciparum parasite Dd2 line was cultured in vitro using standard conditions. […] Tissue culture flasks and assay plates were incubated at 37 °C under a gas mixture of 5% CO2, 5% O2 and 90% N2. […] Significant differences were assessed using two-sided Student’s t-tests. All HTS assays were stopped and read at 72 h. Percent response values represent relative growth as judged by SYBR Green-I fluorescence intensity values normalized to controls.
(§3) Fresh uninfected RBCs (0.5% hematocrit) were added on day 7 and media was changed every other day. […] Resistant parasites were maintained under drug media at a volume of 50 mL until a high parasitemia (> 5%) was achieved. Aliquots of the bulk resistant cultures were frozen in cryovials before cloning by limiting dilution in 96-well plates (seeded at 0.25 or 0.5 parasites/well)[70]. After 3 weeks of cloning, we screened for positive wells by flow cytometry with SYBR Green-stained cells. […] Parasites were harvested by saponin lysis at the trophozoite stage and genomic DNA was extracted using the QIAamp DNA Blood Midi Kit (Qiagen, Germantown, MD)[71].

[2] = system: P. falciparum Dd2 Cytb F123L; test: SYBR Green ABS proliferation assay, NCGC00473217 selected clone G08
Protocol: as §1, §2, §3

[3] = system: P. falciparum Dd2 Cytb A122D; test: SYBR Green ABS proliferation assay, NCGC00473217 selected clone F12
Protocol: as §1, §2, §3

[4] = system: P. falciparum Dd2 Cytb G131S; test: SYBR Green ABS proliferation assay, NCGC00374598 selected clone C11
Method in brief: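 Drug-selected P. falciparum Dd2 clones carrying Cytb mutations, obtained by limiting-dilution cloning, grown in RBCs at 37 °C under 5% CO2/5% O2/90% N2. Growth read by SYBR Green-I fluorescence at 72 h and normalized to controls.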

[5] = DD2, cytochrome b mutant line, third value triple, c9, […], read-out: log AC50, mean (converted)
[6] = DD2, cytochrome b mutant line, fifth value triple, c15, […], read-out: log AC50, mean (converted)
[7] = DD2, cytochrome b mutant line, fourth value triple, c12, […], read-out: log AC50, mean (converted)
[8] = DD2, cytochrome b mutant line, second value triple, c6, […], read-out: log AC50, mean (converted)
[9] = DD2, […], averaged from three independent replicates, top concentration 29 µM, read-out: Average AC50 (Log[M]), NCGC00473217 clone F06 (Cytb V259L) (converted)
[10] = DD2, […], averaged from three independent replicates, top concentration 29 µM, read-out: Average AC50 (Log[M]), NCGC00473217 clone G08 (Cytb F123L) (converted)
[11] = DD2, […], averaged from three independent replicates, top concentration 29 µM, read-out: Average AC50 (Log[M]), NCGC00473217 clone F12 (Cytb A122D) (converted)
[12] = DD2, […], averaged from three independent replicates, top concentration 29 µM, read-out: Average AC50 (Log[M]), NCGC00374598 clone C11 (Cytb G131S) (converted)

Row | SMILES | AC50 [1, 5] | AC50 [2, 6] | AC50 [3, 7] | AC50 [4, 8] | AC50 [1, 9] | AC50 [2, 10] | AC50 [3, 11] | AC50 [4, 12]
1 | COc1ccc(-c2nc(C3CC3)nc3c2CCN(C(=O)c2ccc(C(F)(F)F)cc2)CC3)cc1 [NCGC00374638-01] | 1.38e-05 M | 1.06e-05 M | 1.28e-05 M | 1.19e-05 M |  |  |  | 
2 | COc1ccc(-c2nc(C3CC3)nc3c2CCN(S(=O)(=O)c2ccccc2)CC3)cc1 [NCGC00374642-01] | 1.61e-05 M | 1.61e-05 M | 1.44e-05 M | 1.33e-05 M |  |  |  | 
3 | COc1ccc(-c2nc(C3CC3)nc3c2CCN(Cc2ccc(C#N)cc2)CC3)cc1 [NCGC00374656-01] | 1.14e-05 M | 8.09e-06 M | 8.41e-06 M | 7.5e-06 M |  |  |  | 
4 | COc1cc(OC)c(OC)cc1CN1CCc2nc(N(C)C)[nH]c(=O)c2CC1 [NCGC00440589-01] | 2.76e-06 M | 2.03e-06 M | 1.61e-06 M | 2.66e-06 M |  |  |  | 
5 | O=c1[nH]c(N2CCOCC2)nc2c1CCN(Cc1ccc(C(F)(F)F)cc1)CC2 [NCGC00440629-01] | 1.5e-05 M | 1.88e-06 M | 9.08e-06 M | 6.43e-06 M |  |  |  | 
6 | O=c1[nH]c(N2CCOCC2)nc2c1CCN(Cc1ccc(Cl)c(F)c1)CC2 [NCGC00440655-01] | 1.38e-05 M | 4.55e-06 M | 1.28e-05 M | 1.14e-05 M |  |  |  | 
7 | CCc1nc2c(c(-c3ccc(Cl)cc3)n1)CCN(Cc1ccc(NC(C)=O)cc1)CC2 [NCGC00476919-01] | 1.5e-05 M | 2.03e-06 M | 1.14e-05 M | 1.28e-05 M |  |  |  | 
8 | COc1ccc(-c2nc(C(C)C)nc3c2CCN(C(=O)c2ccccc2Cl)CC3)cc1 [NCGC00479503-01] | 1.58e-05 M | 1.23e-05 M | 1.28e-05 M | 2.28e-06 M |  |  |  | 
9 | COc1ccc(-c2nc(C(C)C)nc3c2CCN(C(=O)c2cccc(Cl)c2)CC3)cc1 [NCGC00479504-01] | 1.68e-05 M | 1.19e-05 M | 1.61e-05 M | 1.55e-05 M |  |  |  | 
10 | COc1ccc(-c2nc(C(C)C)nc3c2CCN(C(=O)Cc2cccc(Cl)c2)CC3)cc1 [NCGC00479508-01] | 1.74e-05 M | 1.28e-05 M | 1.44e-05 M | 1.33e-05 M |  |  |  | 
11 | COc1ccc(-c2nc(C(C)C)nc3c2CCN(C(=O)Nc2ccccc2)CC3)cc1 [NCGC00479509-01] | 1.61e-05 M | 1.23e-05 M | 1.44e-05 M | 1.19e-05 M |  |  |  | 
12 | COc1ccc(-c2nc(C(C)C)nc3c2CCN(C(=O)Cc2ccc(F)cc2)CC3)cc1 [NCGC00479517-01] | 1.88e-05 M | 1.06e-05 M | 1.68e-05 M | 1.5e-05 M |  |  |  | 
13 | COc1ccc(-c2nc(C(C)C)nc3c2CCN(S(=O)(=O)c2cccc(C(F)(F)F)c2)CC3)cc1 [NCGC00479522-01] | 1.28e-05 M | 1.14e-05 M | 1.68e-05 M | 1.1e-05 M |  |  |  | 
14 | CCc1nc2c(c(-c3ccc(O)cc3)n1)CCN(Cc1cccn1C)CC2 [NCGC00480312-01] | 1.74e-05 M | 1.14e-05 M | 1.44e-05 M | 1.88e-05 M |  |  |  | 
15 | COc1ccc(CN2CCc3nc(C(C)C)nc(-c4ccc(O)cc4)c3CC2)cc1 [NCGC00480318-01] | 9.08e-06 M | 9.08e-06 M | 7.78e-06 M | 5.11e-06 M |  |  |  | 
16 | CC(C)c1nc2c(c(-c3ccc(O)cc3)n1)CCN(C(=O)c1cccc(Cl)c1)CC2 [NCGC00480331-01] | 1.81e-05 M | 1.19e-05 M | 1.68e-05 M | 1.74e-05 M |  |  |  | 
17 | COc1ccc(CN2CCc3nc(C4CC4)nc(-c4ccc(O)cc4)c3CC2)cc1 [NCGC00480355-01] | 1.61e-05 M | 1.23e-05 M | 1.19e-05 M | 1.06e-05 M |  |  |  | 
18 | Cc1ccccc1C(=O)N1CCc2nc(C3CC3)nc(-c3ccc(O)cc3)c2CC1 [NCGC00480365-01] | 1.28e-05 M | 1.38e-05 M | 1.81e-05 M | 1.38e-05 M |  |  |  | 
19 | O=C(c1cccc(Cl)c1)N1CCc2nc(C3CC3)nc(-c3ccc(O)cc3)c2CC1 [NCGC00480367-01] | 2.66e-06 M | 1.28e-06 M | 1.55e-05 M | 1.06e-05 M |  |  |  | 

Row | SMILES | AC50 [1, 5] | AC50 [2, 6] | AC50 [3, 7] | AC50 [4, 8] | AC50 [1, 9] | AC50 [2, 10] | AC50 [3, 11] | AC50 [4, 12]
20 | CCCN1C(CC(C)C)=N[S+](=O)([O-])c2cc(NC(C)=O)ccc21 [NCGC00521093-01] |  |  |  |  | 8.93e-06 M | 7.96e-06 M | 1.04e-05 M | 2e-05 M
21 | CCCN1C(CC(C)C)=N[S+](=O)([O-])c2cc(NC(=O)c3cccnn3)ccc21 [NCGC00521144-01] |  |  |  |  | 2.82e-06 M | 1.12e-05 M | 2.67e-06 M | 2e-05 M
22 | CCCN1C(CC(C)C)=N[S+](=O)([O-])c2cc(NC(=O)c3cn(C)cn3)ccc21 [NCGC00521148-01] |  |  |  |  | 1.17e-05 M | 7.1e-06 M | 1.12e-05 M | 2.67e-06 M
23 | CCCN1C(CC(C)C)=N[S+](=O)([O-])c2cc(NC(=O)c3ccc(Br)c(F)c3)ccc21 [NCGC00531761-01] | 3.36e-06 M | 7.96e-08 M | 1e-06 M | 1.12e-06 M |  |  |  | 
24 | CCCN1C(CC(C)C)=N[S+](=O)([O-])c2cc(NC(=O)c3ccccc3OC)ccc21 [NCGC00531762-01] | 2e-06 M | 2.52e-06 M | 1.12e-06 M | 1e-06 M |  |  |  | 
25 | CCCN1C(CC(C)C)=N[S+](=O)([O-])c2cc(NC(=O)c3ccc(SC)cc3)ccc21 [NCGC00531764-01] | 2.12e-06 M | 1e-05 M | 8.93e-06 M | 7.96e-08 M |  |  |  | 
26 | CCCN1C(CC(C)C)=N[S+](=O)([O-])c2cc(NC(=O)c3ccccc3C(F)(F)F)ccc21 [NCGC00531765-01] | 7.52e-06 M | 1.17e-05 M | 1.17e-05 M | 7.67e-06 M |  |  |  | 
27 | CCCN1C(CC(C)C)=N[S+](=O)([O-])c2cc(NC(=O)c3ccc(F)c(Br)c3)ccc21 [NCGC00531767-01] | 1.06e-06 M | 6.32e-06 M | 8.61e-06 M | 2.08e-06 M |  |  |  | 
28 | CCCN1C(CC(C)C)=N[S+](=O)([O-])c2cc(NC(=O)c3ccc(F)c(Cl)c3)ccc21 [NCGC00531769-01] | 3.7e-06 M | 3.99e-07 M | 7.38e-06 M | 2.82e-06 M |  |  |  | 
29 | CCCN1C(CC(C)C)=N[S+](=O)([O-])c2cc(NC(=O)c3cccc(Cl)c3)ccc21 [NCGC00531770-01] | 3.56e-06 M | 4.48e-06 M | 2.82e-06 M | 4.74e-06 M |  |  |  | 
30 | CCCN1C(CC(C)C)=N[S+](=O)([O-])c2cc(NC(=O)c3cccc(OC)c3)ccc21 [NCGC00531773-01] | 7.67e-06 M | 1.06e-05 M | 1e-05 M | 3.56e-06 M |  |  |  | 
31 | CCCN1C(CC(C)C)=N[S+](=O)([O-])c2cc(NC(=O)c3ccc(Cl)cc3)ccc21 [NCGC00531775-01] | 6.32e-07 M | 3.17e-06 M | 2.24e-07 M | 2e-07 M |  |  |  | 
32 | CCCN1C(CC(C)C)=N[S+](=O)([O-])c2cc(NC(=O)c3cccc(C(F)(F)F)c3)ccc21 [NCGC00531777-01] | 1.36e-06 M | 2.24e-09 M | 7.52e-06 M | 7.1e-07 M |  |  |  | 
33 | CCCN1C(CC(C)C)=N[S+](=O)([O-])c2cc(NC(=O)c3ccc4c(c3)OCCO4)ccc21 [NCGC00531778-01] | 5.22e-06 M | 1.31e-05 M | 1.31e-05 M | 2.24e-07 M |  |  |  | 
34 | CCCN1C(CC(C)C)=N[S+](=O)([O-])c2cc(NC(=O)c3c(Cl)cccc3Cl)ccc21 [NCGC00531779-01] | 1.19e-05 M | 1.53e-05 M | 1.59e-05 M | 1.85e-06 M |  |  |  | 
35 | CCCN1C(CC(C)C)=N[S+](=O)([O-])c2cc(NCc3ccc(F)cc3)ccc21 [NCGC00531784-01] | 1.19e-05 M | 1.26e-05 M | 1.42e-05 M | 4.15e-06 M |  |  |  | 
36 | CCCN1C(CC(C)C)=N[S+](=O)([O-])c2cc(NCc3ccccc3)ccc21 [NCGC00531800-01] | 1.12e-05 M | 1.42e-05 M | 9.46e-06 M | 1e-05 M |  |  |  | 
37 | CCCN1C(CC(C)C)=N[S+](=O)([O-])c2cc(N(Cc3cccs3)Cc3cccs3)ccc21 [NCGC00531812-01] | 3.56e-06 M | 4.66e-06 M | 3.99e-06 M | 6.32e-06 M |  |  |  | 
38 | CCCN1C(CC(C)C)=N[S+](=O)([O-])c2cc(NCc3cccs3)ccc21 [NCGC00531814-01] | 1.78e-05 M | 1.59e-05 M | 1.93e-05 M | 1.59e-05 M |  |  |  | 
